# In patent US9856216B2, “Compounds as TNIK, IKKε and TBK1 inhibitors and pharmaceutical composition comprising same” (GREEN CROSS CORPORATION, priority 2015, dated 2018):
# Target: T1, TNIK (Homo sapiens, UniProt Q9UKE5)
# T1 construct: purchased Promega V4158
# Experiment: ADP-Glo Kinase Assay, inhibition activity on TNIK
# Assay type: biochemical
# Conditions: not given
# Experimental: The inhibition activities on TNIK, IKKε and TBK1 were measured by a luminometer, TNIK/IKKε/TBK1 Kinase Enzyme System (Promega, Ca# V4158; Invitrogen, PR8031B, Promega, Ca# V3991) and ADP-Glo Kinase Assay using ADP-Glo™ Kinase Analysis Kit (Promega, Ca# V9101) and a kinase reaction buffer [40 mM Tris(pH 7.5), 20 mM MgCl2, 0.1 mg/mL BSA] in accordance with the manufacturer's protocol.
# T1 sequence (Q9UKE5 1-367 limits assumed): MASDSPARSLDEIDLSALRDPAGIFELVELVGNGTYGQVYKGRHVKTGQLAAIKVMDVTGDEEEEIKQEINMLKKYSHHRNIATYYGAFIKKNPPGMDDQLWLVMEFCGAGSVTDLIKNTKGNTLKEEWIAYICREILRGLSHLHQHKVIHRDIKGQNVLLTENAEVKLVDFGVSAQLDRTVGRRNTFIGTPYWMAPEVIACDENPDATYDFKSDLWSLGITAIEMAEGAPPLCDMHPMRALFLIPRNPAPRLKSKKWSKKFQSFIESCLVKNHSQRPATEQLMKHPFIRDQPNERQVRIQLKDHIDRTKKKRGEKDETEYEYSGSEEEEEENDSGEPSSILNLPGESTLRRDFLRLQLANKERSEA
row,Structure (SMILES),TNIK (μM)
1,"O=C1NCc2c(-c3ccccc3)ccc(NCCN3C(=O)c4ccccc4C3=O)c21 [Example 257, 2-(2-((3-Oxo-7-phenylisoindolin-4-yl)amino)ethyl)isoindolin-1,3-dione]",Insoluble
2,"O=C1NCc2c(-c3ccccc3)ccc(NCCCN3C(=O)c4ccccc4C3=O)c21 [Example 264, 2-(3-((3-Oxo-7-phenylisoindolin-4-yl)amino)propyl)isoindolin-1,3-dione]",Insoluble
3,"COc1cccc(-c2ccc(N)c3c2C(=O)NC3=O)c1OC [Example 273, 4-Amino-7-(2,3-dimethoxyphenyl)isoindolin-1,3-dione]",Insoluble

# Same assay, conditions: TNIK (μM)
row,Structure (SMILES),IC50
1,"O=C1NCc2c(-c3ccccc3)ccc(NCCCl)c21 [Example 253, 7-((2-Chloroethyl)amino)-4-phenylisoindolin-1-one]",2.6 µM

# Same assay, conditions: read-out: TNIK
row,Structure (SMILES),IC50
1,"CC(=O)c1ccc(NC(=O)Nc2ccc(-c3ccccc3)c3c2C(=O)NC3)cc1 [Example 237, 1-(4-Acetylphenyl)-3-(3-oxo-7-phenylisoindolin-4-yl)urea]",4.9 µM
2,"Cc1ccccc1NC(=O)Nc1ccc(-c2ccccc2)c2c1C(=O)NC2 [Example 238, 1-(3-Oxo-7-phenylisoindolin-4-yl)-3-(o-tolyl)urea]",> 20 µM
3,"O=C(Nc1ccc(-c2ccccc2)c2c1C(=O)NC2)NC1CCCC1 [Example 239, 1-Cyclopentyl-3-(3-oxo-7-phenylisoindolin-4-yl)urea]",> 20 µM
4,"O=C(Nc1cccc(F)c1)Nc1ccc(-c2ccccc2)c2c1C(=O)NC2 [Example 240, 1-(3-Fluorophenyl)-3-(3-oxo-7-phenylisoindolin-4-yl)urea]",2.4 µM
5,"CSc1cccc(NC(=O)Nc2ccc(-c3ccccc3)c3c2C(=O)NC3)c1 [Example 241, 1-(3-(Methylthio)phenyl)-3-(3-oxo-7-phenylisoindolin-4-yl) urea]",2.7 µM
6,"O=C(Nc1ccccc1F)Nc1ccc(-c2ccccc2)c2c1C(=O)NC2 [Example 242, 1-(2-Fluorophenyl)-3-(3-oxo-7-phenylisoindolin-4-yl)urea]",2.3 µM
7,"O=C(Nc1ccc(Cl)cc1)Nc1ccc(-c2ccccc2)c2c1C(=O)NC2 [Example 243, 1-(4-Chlorophenyl)-3-(3-oxo-7-phenylisoindolin-4-yl)urea]",3.9 µM
8,"COc1ccc(-c2ccc(NC(=O)Nc3ccccc3)c3c2CNC3=O)cc1 [Example 244, 1-(7-(4-Methoxyphenyl)-3-oxoisoindolin-4-yl)-3-phenylurea]",4.02 µM
9,"O=C(Nc1ccccc1)Nc1ccc(-c2ccc(F)cc2)c2c1C(=O)NC2 [Example 245, 1-(7-(4-Fluorophenyl)-3-oxoisoindolin-4-yl)-3-phenylurea]",6.5 µM
10,"Nc1ccc(-c2ccccc2)c2c1C(=O)N(C(=O)NC1CCCCC1)C2 [Example 246, 7-Amino-N-cyclohexyl-1-oxo-4-phenylisoindolin-2-carboxamide]",> 20 µM
11,"O=C1NCc2c(-c3ccccc3)ccc(NC(=S)Nc3ccccc3)c21 [Example 247, 1-(3-Oxo-7-phenylisoindolin-4-yl)-3-phenylthiourea]",> 20 µM
12,"O=C(Nc1ccc(-c2ccccc2)c2c1C(=O)NC2)Oc1ccccc1 [Example 248, Phenyl (3-oxo-7-phenylisoindolin-4-yl)carbamate]",> 20 µM
13,"O=C1NCc2c(-c3ccccc3)ccc(NS(=O)(=O)c3ccccc3)c21 [Example 249, N-(3-oxo-7-phenylisoindolin-4-yl)benzenesulfonamide]",> 20 µM
14,"CS(=O)(=O)Nc1ccc(-c2ccccc2)c2c1C(=O)NC2 [Example 250, N-(3-oxo-7-phenylisoindolin-4-yl)methanesulfonamide]",21 µM
15,"O=C1NCc2c(-c3ccccc3)ccc(NS(=O)(=O)c3ccc(F)cc3)c21 [Example 251, 4-Fluoro-N-(3-oxo-7-phenylisoindolin-4-yl)benzene sulfonamide]",> 20 µM
16,"COc1ccc(S(=O)(=O)Nc2ccc(-c3ccccc3)c3c2C(=O)NC3)cc1 [Example 252, 4-Methoxy-N-(3-oxo-7-phenylisoindolin-4-yl)benzene sulfonamide]",> 20 µM
17,"N#CCCNc1ccc(-c2ccccc2)c2c1C(=O)NC2 [Example 254, 3-((3-Oxo-7-phenylisoindolin-4-yl)amino)propanenitrile]",5.6 µM
18,"CN(C)CCNc1ccc(-c2ccccc2)c2c1C(=O)NC2 [Example 255, 7-((2-(Dimethylamino)ethyl)amino)-4-phenylisoindolin-1-one]",> 20 µM
19,"O=C1NCc2c(-c3ccccc3)ccc(NCCO)c21 [Example 256, 7-((2-Hydroxyethyl)amino)-4-phenylisoindolin-1-one]",4.9 µM
20,"CN1CCN(CCNc2ccc(-c3ccccc3)c3c2C(=O)NC3)CC1 [Example 258, 7-((2-(4-Methylpiperazin-1-yl)ethyl)amino)-4-phenylisoindolin-1-one]",> 20 µM
21,"O=C1NCc2c(-c3ccccc3)ccc(NCCN3CCCCC3)c21 [Example 259, 4-Phenyl-7-((2-(piperidin-1-yl)ethyl)amino)isoindolin-1-one]",> 20 µM
22,"O=C1NCc2c(-c3ccccc3)ccc(NCCN3CCOCC3)c21 [Example 260, 7-((2-Morpholinoethyl)amino)-4-phenylisoindolin-1-one]",> 20 µM

row,Structure (SMILES),IC50
1,"CNCCNc1ccc(-c2ccccc2)c2c1C(=O)NC2 [Example 261, 7-((2-(Methylamino)ethyl)amino)-4-phenylisoindolin-1-one]",> 20 µM
2,"O=C1NCc2c(-c3ccccc3)ccc(NCCN3CCCC3)c21 [Example 262, 4-Phenyl-7-((2-(pyrrolidin-1-yl)ethyl)amino)isoindolin-1-one]",> 20 µM
3,"O=C1NCc2c(-c3ccccc3)ccc(NCc3ccccc3)c21 [Example 263, 7-(Benzylamino)-4-phenylisoindolin-1-one]",> 20 µM
4,"Nc1ccc(-c2ccccc2)c2c1C(=O)NC2=O [Example 271, 4-Amino-7-phenylisoindolin-1,3-dione]",2.5 µM
5,"COc1ccccc1-c1ccc(N)c2c1C(=O)NC2=O [Example 272, 4-Amino-7-(2-methoxyphenyl)isoindolin-1,3-dione]",10.9 µM
6,"Nc1ccc(-c2ccco2)c2c1C(=O)NC2=O [Example 274, 4-Amino-7-(furan-2-yl)isoindolin-1,3-dione]",3.6 µM
7,"Nc1ccc(-c2cccs2)c2c1C(=O)NC2=O [Example 275, 4-Amino-7-(thiophen-2-yl)isoindolin-1,3-dione]",1.1 µM
8,"O=C(Nc1ccc(-c2ccccc2)c2c1C(=O)NC2=O)c1ccccc1 [Example 276, N-(1,3-dioxo-7-phenylisoindolin-4-yl)benzamide]",1.1 µM
9,"COc1ccccc1-c1ccc(NC(=O)c2ccccc2)c2c1C(=O)NC2=O [Example 277, N-(7-(2-methoxyphenyl)-1,3-dioxoisoindolin-4-yl)benzamide]",0.65 µM
10,"COc1cccc(-c2ccc(NC(=O)c3ccccc3)c3c2C(=O)NC3=O)c1OC [Example 278, N-(7-(2,3-dimethoxyphenyl)-1,3-dioxoisoindolin-4-yl) benzamide]",0.41 µM
11,"O=C(Nc1ncc(-c2ccccc2)c2c1C(=O)NC2)c1ccc(F)cc1 [Example 279, 4-Fluoro-N-(3-oxo-7-phenyl-2,3-dihydro-1H-pyrrolo[3,4-c]pyridin-4-yl)benzamide]",> 20 µM
12,"COc1cccc(-c2ccc(NC(=O)c3ccc(NCCCN4CCCC4)cc3)c3c2CNC3=O)c1OC [Example 280, N-(7-(2,3-dimethoxyphenyl)-3-oxoisoindolin-4-yl)-4-((3-(pyrrolidin-1-yl)propyl)amino)benzamide]",0.073 µM
13,"CN(C)CCNc1ccc(C(=O)Nc2ccc(Br)c3c2C(=O)NC3)cc1 [Example 281, N-(7-bromo-3-oxoisoindolin-4-yl)-4-((2-(dimethylamino)ethyl)amino)benzamide]",2.42 µM
14,"O=C(Nc1ccc(Br)c2c1C(=O)NC2)c1ccc(NCCCN2CCCCC2)cc1 [Example 282, N-(7-bromo-3-oxoisoindolin-4-yl)-4-((3-(piperidin-1-yl)propyl)amino)benzamide]",1.4 µM
15,"O=C(Nc1ccc(Br)c2c1C(=O)NC2)c1ccc(NCCN2CCCC2)cc1 [Example 283, N-(7-bromo-3-oxoisoindolin-4-yl)-4-((2-(pyrrolidin-1-yl)ethyl)amino)benzamide]",1.76 µM
16,"O=C(Nc1ccc(Br)c2c1C(=O)NC2)c1ccc(NCCN2CCCCC2)cc1 [Example 284, N-(7-bromo-3-oxoisoindolin-4-yl)-4-((2-(piperidin-1-yl)ethyl)amino)benzamide]",1.55 µM
17,"O=C(Nc1ccc(Br)c2c1C(=O)NC2)c1ccc(NCCN2CCCCCC2)cc1 [Example 285, 4-((2-(azepan-1-yl)ethyl)amino)-N-(7-bromo-3-oxoisoindolin-4-yl)benzamide]",1.13 µM
18,"CN(C)CCCNc1ccc(C(=O)Nc2ccc(Br)c3c2C(=O)NC3)cc1 [Example 286, N-(7-bromo-3-oxoisoindolin-4-yl)-4-((3-(dimethylamino)propyl)amino)benzamide]",1.48 µM
19,"O=C(Nc1ccc(-c2ccco2)c2c1C(=O)NC2)c1ccc(NCCN2CCCC2)cc1 [Example 287, N-(7-(furan-2-yl)-3-oxoisoindolin-4-yl)-4-((2-(pyrrolidin-1-yl)ethyl)amino)benzamide]",0.66 µM
20,"COCCNc1ccc(C(=O)Nc2ccc(-c3ccco3)c3c2C(=O)NC3)cc1 [Example 288, N-(7-(furan-2-yl)-3-oxoisoindolin-4-yl)-4-((2-methoxyethyl)amino)benzamide]",0.45 µM
21,"O=C(Nc1ccc(-c2ccco2)c2c1C(=O)NC2)c1ccc(NCCN2CCCCC2)cc1 [Example 289, N-(7-(furan-2-yl)-3-oxoisoindolin-4-yl)-4-((2-(piperidin-1-yl)ethyl)amino)benzamide]",0.36 µM
22,"O=C(Nc1ccc(-c2ccco2)c2c1C(=O)NC2)c1ccc(NCCN2CCOCC2)cc1 [Example 290, N-(7-(furan-2-yl)-3-oxoisoindolin-4-yl)-4-((2-morpholinoethyl)amino)benzamide]",0.18 µM
